According to a melting point compilation (Tetko et al.; mined from patent text by program, amines drawn as free bases though some values may be those of a salt):

Row | SMILES | melting point [°C]
1 | CC1(C)CCC(C)(C)c2cc(Oc3ccc4c(CO)cccc4c3)ccc21 | 131 to 133
2 | CCOC(=O)c1cn(-c2ccc(OC)cc2)c(-c2ccc(OC)cc2)n1 | 142 to 143
3 | Cc1cc(C)nc([NH+]([O-])C(=O)Cc2ccsc2)c1 (stereo not given) | 154
4 | O=C1c2ccccc2C(=O)N1CSc1nnnn1-c1ccccc1 | 146 to 147
5 | COc1c(N)cc(C(=O)O)cc1S(N)(=O)=O | 210
6 | C=CCOc1ccccc1-c1nc2nc(SC)ncc2c(=O)[nH]1 | 205 to 206
7 | O=C1Nc2ccc(I)cc2C1=NNC(=O)c1ccc(I)cc1 | 326
8 | COc1c(C)c(C=O)c(OC)c2ccccc12 | 95 to 96
9 | O=C1CC(c2ccccc2)Cc2occ(C(F)(F)F)c21 (stereo not given) | 107 to 108
10 | CCCCc1cccn1NS(=O)(=O)C1CCCC=C1C(=O)OCC (stereo not given) | 49 to 50
11 | Cn1c(COc2ccc(CC3SC(=O)NC3=O)cc2)nc2ccc(Oc3ccc(NC(=O)C4CCCCC4)cc3)cc21 (stereo not given) | 182 to 184
12 | COc1cc2nccc(N3CCN(C(=O)Nc4ccc(Oc5ccccc5)cc4)CC3)c2cc1OC | 204 to 206
13 | NC(=S)c1ccc([N+](=O)[O-])cc1 | 165 to 167
14 | Clc1ccc(Nc2nnc(-c3cccc(Oc4ccc(Cl)c(Cl)c4)c3)s2)cc1Cl | 189 to 190
15 | Clc1cc2c(cc1Cl)C(Cl)Cc1ccccc1S2 (stereo not given) | 130 to 131
16 | CSc1ccc(/C=C2/C(CCN(O)C(N)=O)=C(C)c3ccccc32)cc1 | 120 to 122
17 | COc1cc(OC)c(-c2c[nH]c(C3CC3)n2)cc1C=CC(=O)c1ccc(S(N)(=O)=O)cc1 | 156 to 160
18 | O=C(OCc1ccccc1)C(C(=O)OCc1ccccc1)c1ncc(C(F)(F)F)cc1[N+](=O)[O-] | 82 to 84
19 | COC(=O)C(CS)NC(=O)C(=O)NCCS (stereo not given) | 112
20 | O=c1n(-c2cc(O)c([N+](=O)[O-])cc2F)nc2ccc(Cl)cn12 | 207 to 209
21 | Cc1cn(C2CC(O)C(CNC(=O)c3ccc(Br)cc3)O2)c(=O)[nH]c1=O (stereo not given) | 250 to 252
22 | CC(C)n1nc(-c2c(-c3ccccc3)nn3ccc(C(=O)NC4CC4)cc23)ccc1=O | 184 to 185
23 | Cc1cccc(NC(=O)NCc2cccc3c2C(=O)N(C2CCC(=O)NC2=O)C3=O)c1 (stereo not given) | > 260
24 | CC1(C)CC(=O)C(Br)(Cc2ccc(Cl)cc2)C(Br)C1 (stereo not given) | 82 to 84
25 | CC(=O)C(=Cc1cccc([N+](=O)[O-])c1)P1(=O)OCCCO1 | 144 to 146
26 | COc1ccc2c(c1)C(=O)OC2C(Cl)(Cl)Cl (stereo not given) | 134 to 136
27 | COc1cc(OC)nc(Oc2ccc3ncccc3c2C(=O)O)n1 | 195 to 198

Row | SMILES | melting point [°C]
28 | CCc1c(-c2ccc(OC)cc2)c2c(CO)cc3cccc1n32 | 97 to 100
29 | CCCC(=O)NC1=CC(=O)c2ccc(C)nc2C1=O | 188 to 189
30 | COC(=O)c1nc2cccc(C)c2c(O)c1C(=O)OC | 167 to 168
31 | CC(C)(C)C(=O)OCCCCCCOc1ccc(Nc2ccccc2)cc1 | 64 to 65
32 | Cc1sc(-c2cccc(Br)c2)nc1O | 148 to 149
33 | O=Cc1c[nH]c2ccc(-c3ccc4[nH]cnc4c3)cc12 | > 280
34 | CC(=O)Nc1nnc2c3c(c(N4CCCCC4)nn12)CCCC3 | 214 to 216
35 | CC(C)n1cnc(N2CCc3ccccc3CC2)c(C#N)c1=O | 152 to 154
36 | COC(=O)c1nc(C)c(-c2nccs2)s1 | 129 to 130
37 | COc1cc2c(cc1OC)CN(CCCCc1ccc(NC(=O)c3ccc4ccccc4c3)cc1)CC2 | 165 to 167
38 | COc1ccc(S(=O)(=O)N2c3ccc(Br)cc3-c3ccccc3C2C)cc1C (stereo not given) | 219 to 221
39 | CC(=O)Nc1cccc2c1C(=O)c1c-2n[nH]c1-c1ccc(O)cc1 | > 300
40 | CC(=O)OC1(C(C)=O)CCC2C3C=CC4=CC(=O)CCC4(C)C3C(F)CC21C (stereo not given) | 220 to 222
41 | CC(=O)c1cc(I)c(O)c(Cl)n1 | 223 to 224
42 | COC(=O)CCCCN(CCc1cc(-c2ccc(F)cc2F)ccc1OCc1ccc(-c2ccc(C(F)(F)F)cc2)cc1)Cc1ccc(C(=O)OC)cc1 | > 240
43 | CC(=O)N1C(C)(C)CC(Oc2nc(OC3CC(C)(C)N(O)C(C)(C)C3)nc(N3C(C)(C)CCCC3(C)C)n2)CC1(C)C | 175 to 176
44 | COC(=O)NCCCCn1c(=O)c2c(C)nc3cccc1n32 | 175 to 176
45 | Nc1nc(Oc2c(Cl)cccc2Cl)nc2nc(-c3ccco3)nn12 | 270 to 272
46 | Cc1nnc(-c2ccc3occ(-c4cnco4)c3c2)o1 | 184 to 185
47 | CC(CCCCOCCCc1ccc(N2CCCC2)cc1)NCC(O)c1cc(O)cc(O)c1 (stereo not given) | 57 to 60
48 | CC1(C)CCc2cc(O)c(C=O)cc21 | 40 to 40.5
49 | CS(=O)(=O)OC[C@@H](O)COc1ccc(C#N)cc1 | 119 to 121
50 | CCCCCCCCCCCCCCCCCC(=O)OC1CC(C)(C)N(OCC(C)(C)O)C(C)(C)C1 | 51 to 56
51 | CCc1cc(C(=O)OC)n(C)n1 | 162 to 165
52 | CN(C)NC1=C2N=c3cc(Cl)ccc3=C2Oc2ccccc2N1C | 196 to 197
53 | CS(=O)(=O)c1ccc(C2=C(Br)C(=O)C3(CCCC3)O2)cc1 | 127 to 128
54 | CCOC(=O)c1ccc(OCc2nc(-c3ccco3)oc2C)c(OC)c1 | 133 to 134

Row | SMILES | melting point [°C]
55 | COC(=O)C[C@H]1CC[C@H](n2nc(-c3c(-c4ccccc4)nn4ccccc34)ccc2=O)C1 (relative stereo) | 105 to 107
56 | CCOC(=O)c1cn(C)c2cnc3cc(F)c(N4CCCC(C)(C)C4)cc3c2c1=O | 218 to 220
57 | CCCNCc1cccc(OCCCNc2nc(N)nn2C)c1 | 79 to 81
58 | O=Cc1ccc2c(c1)Cc1cccnc1O2 | 171 to 173
59 | Nc1ncc(Br)n2nc(SCc3ccccc3)nc12 | 149 to 150
60 | CNc1c(N)n(CC(C)(C)C)c(=O)[nH]c1=O | 217 to 220
61 | CCCNC1CCc2nc(N)sc2C1 (stereo not given) | 145 to 150
62 | O=C(O)Cc1ccc[nH]1 | 83 to 84
63 | CC[C@@]1(C=O)CCCN(CCc2c[nH]c3ccc(F)cc23)C1=O | 116
64 | CC1CC(=O)N(c2ccncc2)C1=O (stereo not given) | 119 to 120
65 | Cc1ccccc1C1CCN(C(=O)CCC(=O)c2ccc3c(c2)CCNCC3)CC1 | 93 to 95
66 | COc1cc(C#N)cc(Br)c1O | 144 to 145
67 | COc1cc(C=O)ccc1OCc1nc(-c2cccc(OS(C)(=O)=O)c2)oc1C | 136 to 137
68 | CC(=O)N1c2ccccc2-c2c(N)cnn2C1C (stereo not given) | 170 to 172
69 | CCCC1=C(C#N)C(c2cccc(C#N)c2Cl)c2c[nH]nc2N1 (stereo not given) | > 250
70 | CC1(c2c[nH]cn2)CCc2ccccc21 (stereo not given) | 164 to 171
71 | Cc1ccccc1C=CC(=O)C=Cc1ccccc1C | 94 to 96
72 | COC(=O)C1CCC2C3CCC4CC(O)C(Br)CC4(C)C3CCC12C (stereo not given) | 195 to 198
73 | COc1c(N2CC[C@@H](C(C)(C)NC(=O)OC(C)(C)C)C2)c(F)cc2c(=O)c(C(=O)O)cn(C3CC3)c12 | 70 to 72
74 | N#Cc1ccc(OCC[C@@H](NC(=O)OCc2ccccc2)C(=O)OC(c2ccccc2)c2ccccc2)cc1 | 125 to 126
75 | CCOCc1nc2cnc3cc(-c4ccccc4)ccc3c2n1CC1CCN(C(=O)OC(C)(C)C)CC1 | 166 to 167
76 | Cc1cc2c(cc1C(=O)CO)C(C)(C)CC(C)C2(C)C (stereo not given) | 81 to 82
77 | COC(=O)CC=CC=CC=CC=CC=Cc1ccsc1 | 206 to 208
78 | COCc1cc2c(nc(C)n2C)c(O)c1CCC(=O)c1ccccc1C | 163
79 | O=c1[nH]c(-c2c[nH]c3ccccc23)nc2ccc(N3CCOCC3)cc12 | > 300
80 | ON=CCc1ccccc1 | 90 to 94
81 | Nc1nc(Nc2ccccc2)sc1C(=O)c1c(F)cccc1F | 183 to 184

Row | SMILES | melting point [°C]
82 | CS(=O)(=O)NCCCCn1c(CCO)nc2c(N)nc3ccccc3c21 | 206 to 208
83 | O=C(O)c1cn(-c2ccc(O)cc2)c2cc(F)c(F)cc2c1=O | 288 to 290
84 | OCc1cn(-c2cc(F)cc(C(F)(F)F)c2)cn1 | 144 to 145
85 | CN(C)CCc1c[nH]c2ccc(C#CCOCc3ccccc3)cc12 | 93 to 95
86 | OC(c1ccccc1)(c1ccccc1-c1ccccc1)C1CCNCC1 (stereo not given) | 185 to 186
87 | O=CNC1=NN(c2ccc(Cl)c(Cl)c2)CC1 | 151 to 153
88 | Cn1cnnc1C(O)(c1ccc(Cl)cc1)c1ccc2[nH]c(=O)cc(-c3cccc(Cl)c3)c2c1 (stereo not given) | > 260
89 | CCCCn1c(=O)c(-c2c(Cl)cccc2Cl)cc2cnc(N)nc21 | 202 to 205
90 | CCCCOC1(N)C=CC(NC(=O)CBr)=CC1 (stereo not given) | 131 to 134
91 | Cc1ccc([N+](=O)[O-])c(C(N)=O)c1 | 172 to 175
92 | CCCCCCCCCC(=O)C1C(=O)CC(C)OC1=O (stereo not given) | 62 to 63
93 | Nc1cc2c(cc1N)OCOC2 | 156 to 158
94 | CC(C)Cc1ccc([N+](=O)[O-])cc1C#N | 73
95 | CC(=O)C1=C(O)C(=C(C)Nc2cccc(NS(=O)(=O)c3ccccc3)c2)C(=O)OC1=O | 209
96 | N#CCCNC(=O)c1cccc(-c2cccc3oc(Cc4cccc(C(F)(F)F)c4)nc23)c1 | 117 to 118
97 | COC(C=Cc1ccccc1)=C1C(=O)C=C(C)C1=O | 86
98 | O=C(O)C(CCc1ccccc1)(CCc1ccccc1)C(=O)O | 168 to 172
99 | OC(Cn1ccnc1)c1cccnc1 (stereo not given) | 119 to 121
100 | O=C(Nc1n[nH]c2cc(Cl)ccc12)c1cccs1 | 215
101 | N#Cc1cccc2c1OCC2 | 54.5 to 56
102 | Cn1cc(OC(=O)c2ccccc2)c(=O)c2cccc(F)c21 | 179 to 181
103 | CC(C)CC(NCC(=O)NOCc1ccccc1)C(=O)NC(Cc1ccc2ccccc2c1)C(=O)NC(C)C(N)=O (stereo not given) | 205 to 212
104 | N#CC(C#N)=C1N(CCCN2CCCCC2)CCN1C1CCN(Cc2ccccc2)CC1 | 156 to 158
105 | COC(=O)c1cccc(-c2csc(N=C(N)N)n2)n1 | 240
